Data taken from ChEMBL document CHEMBL1275576, “In vitro activity of tomopenem (CS-023/RO4908463) against anaerobic bacteria” (Antimicrob Agents Chemother, 2009).

Experiments:
Plasma = test: Plasma protein binding in human at […] by HPLC method; format: ADME, cell-free
[1] = Half life in human at […] by HPLC method; format: ADME, organism-based; details: in vivo
[2] = Half life in rhesus monkey at 10 mg/kg by HPLC method; format: ADME, organism-based, Macaca mulatta; set-up: dose 10 mg/kg; details: in vivo

Activity (Plasma): > 95%
half-life [1]: 5 h
half-life [2]: 5 h
SMILES: C[C@@H](O)[C@H]1C(=O)N2C(C(=O)O)=C(S[C@@H]3CN[C@H](C(=O)Nc4cccc(C(=O)O)c4)C3)[C@H](C)[C@H]12
